# Earlier results, collected in patent publication US20140141044A1, “Cord Colitis Syndrome Pathogen” (Dana-Farber Cancer Institute, Inc., priority 2012, published 2014).
# System: B. enterica
# Conditions: direct or inferred from related organisms
smiles,measurement,value
Cc1ncc([N+](=O)[O-])n1CCO [metronidazole],sensitivity of B. enterica,direct or inferred sensitivity
